Test results: publication PMC7845544 (Frontiers in Pharmacology, 2021)

Legend:
human granulosa cells = test: Estradiol production by human granulosa cells from individual patients by diagnosis (NOR, ARA, PCOS); assay type: cell-based
Method: Human granulosa cells were prepared from the spent follicular fluid of women undergoing IVF treatment at Boston IVF Center (Waltham, MA, United States) and at Family Fertility Center (Baylor College of Medicine, Houston, TX, United States) following methods previously established ([Breckwoldt et al., 1996]; [Amsterdam et al., 2003]). Institutional review board approval and informed consent from the patients were obtained before collecting the follicular fluid samples. In brief, red blood cells (RBCs) in the follicular aspirate were lyzed using RBC lysis buffer (Quality Biological Inc., Gaithersburg, MD, United States), and washed extensively with PBS and DMEM/F12 containing 5% FBS, fungizone, and the antibiotics penicillin (100 IU/ml) and streptomycin (100 μg/ml). Subsequently, cells from the aspirate were plated in T75 flasks, cultured for 7 days with fresh media being replaced every other day. At the end of the culture period, cells were released from the flask by trypsin and transferred to 96-well plates (5,000 cells/well, Greiner Bio-One). Following 48 h of culture, media in culture wells was replaced with serum free media containing 0.1% BSA and 10^−7 M androstenedione. Following 24 h of serum starvation, cells were stimulated with fresh media (0.1% BSA, 10^−7 M androstenedione) with FSH or compound for 48 h. Supernatant was collected and stored at −80C for determination of estradiol by ELISA.
Clinical definitions of patient sub-populations for patients at Texas Fertility followed guidelines outlined by the Practice Committee of the American Society for Reproductive Medicine ([Practice Committee of the American Society for Reproductive Medicine, 2015]). […] Advanced reproductive age (ARA) was defined as woman of 35 years old or greater in age, based on the definition of advanced maternal age by Society for Maternal-Fetal Medicine. Polycystic Ovarian Syndrome (PCOS) is a patient with two out of the three Rotterdam criteria ([Rotterdam ESHRE/ASRM-Sponsored PCOS Consensus Workshop Group, 2004]) which includes hyperandrogenism (hirsutism or biochemical), oligomenorrhea or amenorrhea, and/or polycystic ovaries on ultrasound.

mouse oocytes = test: Oocyte quality, IVF and embryo development in mice; assay type: in vivo
Method: Developmental competence of oocytes was determined in mice, as described previously ([Sriraman et al., 2014]). Mice were superovulated with FSH or FSH + TOP5300. […] To measure nuclear status, oocytes were assessed for perivitelline space and first polar body extrusion by phase contrast inverted microscopy. Oocyte maturity was determined by presence of a polar body reflecting oocytes in metaphase-II (MII). Oocytes without a first polar body were assessed as metaphase-I (MI). After the evaluations, oocytes were incubated for 2 h in the media before use in IVF as described ([Sriraman et al., 2014]). Briefly, oocytes were placed in fertilization media (Research Fertilization Media, Cook Medical, Bloomington, IN, United States) under paraffin oil (Calbiochem, San Diego, CA, United States) and incubated at 37°C in 6% CO2, 5% O2 and 89% N2 for 5–6 h with spermatozoa. Spermatozoa were collected from the cauda epididymis of male C57BL/6J mice and were previously incubated for 1 h in fertilization media prior to use (Research Fertilization Media; Cook Medical, Bloomington, IN) for sperm capacitation. The putative zygotes were then washed and placed in 20 μL drops of culture media (Research Cleave Media; Cook Medical, Bloomington, IN, United States) in Petri dishes, or in 60 μL of culture media in Primo Vision microwell group culture dishes (Vitrolife, Gothenberg, Sweden) and checked for fertilization/cleavage the next morning. Embryos were then cultured in the incubator for an additional 3 days to the blastocyst stage and the blastocyst development rate was recorded.

beagle dogs = test: Serum thyroid hormones in beagle dogs treated for 14 days; assay type: in vivo
Method: Male and female beagle dogs were received from Beijing Marshall Biotechnology Co., Ltd (Beijing, China) and group housed at Covance (Shanghai, China), except for 5 h each day in stainless steel cages for study-related procedures. […] Blood samples (approximately 1.0 ml) were collected for thyroid hormone analysis on Days 0, prior to dosing, 24 h post dose (prior to second dose on Day 2) and once prior to dosing on Day 14. Blood was collected into serum separator tubes (without anticoagulant), allowed to clot at room temperature, and centrifuged for approximately 10 min in a refrigerated centrifuge at approximately at 3,500 g within 2 h of collection. Serum was harvested and placed in a freezer for subsequent thyroid hormone measurement.

NK2 receptor = conditions: dose response
[1] = rec-hFSH + TOP5300, 30, 100 mg/kg
[2] = female dog, 30 mg/Kg, 0h predosing
[3] = female dog, 100 mg/Kg, 0h predosing
[4] = female dog, 1000 mg/Kg, 0h predosing
[5] = male dog, 30 mg/Kg, 0h predosing
[6] = male dog, 100 mg/Kg, 0h predosing
[7] = male dog, 1000 mg/Kg, 0h predosing

COc1cc2c(cc1-c1cnn(CCO)c1)-c1c(c(C(=O)N(C)C(C)(C)C)nn1-c1cc(Cl)cc(Cl)c1)CO2 [TOP5300]
fold higher concentration than rec-hFSH required to stimulate maximum estradiol production (human granulosa cells): approximately 20 fold
Estradiol (pg/ml), ARA (n = 6) (human granulosa cells; FSH (20 nM) or TOP5300 (400 nM), advanced reproductive age, mean ± SD): 10,648 ± 7,338 pg/ml
Estradiol (pg/ml), NOR (n = 2) (human granulosa cells; FSH (20 nM) or TOP5300 (400 nM), normal ovarian reserve, mean): 4,829 pg/ml
Estradiol (pg/ml), PCOS (n = 4) (human granulosa cells; FSH (20 nM) or TOP5300 (400 nM), polycystic ovarian disease, mean ± SD): 1,276 + 1,563 pg/ml
% of M2 oocytes (mouse oocytes; 30 mg/kg with low dose FSH): comparable to FSH and PMSG
M1/M2 oocytes relative to FSH and PMSG group (mouse oocytes; 100 mg/kg): fewer mature oocytes (M2 oocytes) and more M1 oocytes
fertilization rates vs rec-hFSH-treated mice (mouse oocytes; [1]): no differences
hatched blastocyst rates vs rec-hFSH-treated mice (mouse oocytes; [1]): no differences
TSH, free T3 or free T4 concentrations over the course of treatment (beagle dogs; dog, 14 days): No significant difference
Free T3, fold change over vehicle group (beagle dogs; [2]): 0.9 fold
Free T4, fold change over vehicle group (beagle dogs; [2]): 1.1 fold
TSH, fold change over vehicle group (beagle dogs; [2]): 1.2 fold
Free T3, fold change over vehicle group (beagle dogs; female dog, 30 mg/Kg, 24h): 0.8 fold
Free T4, fold change over vehicle group (beagle dogs; female dog, 30 mg/Kg, 24h): 1.1 fold
TSH, fold change over vehicle group (beagle dogs; female dog, 30 mg/Kg, 24h): 0.9 fold
Free T3, fold change over vehicle group (beagle dogs; female dog, 30 mg/Kg, Day 14): 1.0 fold
Free T4, fold change over vehicle group (beagle dogs; female dog, 30 mg/Kg, Day 14): 0.8 fold
TSH, fold change over vehicle group (beagle dogs; female dog, 30 mg/Kg, Day 14): 1.1 fold
Free T3, fold change over vehicle group (beagle dogs; [3]): 1.0 fold
Free T4, fold change over vehicle group (beagle dogs; [3]): 1.2 fold
TSH, fold change over vehicle group (beagle dogs; [3]): 1.3 fold
Free T3, fold change over vehicle group (beagle dogs; female dog, 100 mg/Kg, 24h): 0.9 fold
Free T4, fold change over vehicle group (beagle dogs; female dog, 100 mg/Kg, 24h): 1.1 fold
TSH, fold change over vehicle group (beagle dogs; female dog, 100 mg/Kg, 24h): 1.0 fold
Free T3, fold change over vehicle group (beagle dogs; female dog, 100 mg/Kg, Day 14): 1.1 fold
Free T4, fold change over vehicle group (beagle dogs; female dog, 100 mg/Kg, Day 14): 1.1 fold
TSH, fold change over vehicle group (beagle dogs; female dog, 100 mg/Kg, Day 14): 1.1 fold
Free T3, fold change over vehicle group (beagle dogs; [4]): 1.1 fold
Free T4, fold change over vehicle group (beagle dogs; [4]): 1.0 fold
TSH, fold change over vehicle group (beagle dogs; [4]): 1.2 fold
Free T3, fold change over vehicle group (beagle dogs; female dog, 1000 mg/Kg, 24h): 0.9 fold
Free T4, fold change over vehicle group (beagle dogs; female dog, 1000 mg/Kg, 24h): 0.9 fold
TSH, fold change over vehicle group (beagle dogs; female dog, 1000 mg/Kg, 24h): 0.8 fold
Free T3, fold change over vehicle group (beagle dogs; female dog, 1000 mg/Kg, Day 14): 1.2 fold
Free T4, fold change over vehicle group (beagle dogs; female dog, 1000 mg/Kg, Day 14): 0.9 fold
TSH, fold change over vehicle group (beagle dogs; female dog, 1000 mg/Kg, Day 14): 0.8 fold
Free T3, fold change over vehicle group (beagle dogs; [5]): 1.3 fold
Free T4, fold change over vehicle group (beagle dogs; [5]): 1.0 fold
TSH, fold change over vehicle group (beagle dogs; [5]): 0.8 fold
Free T3, fold change over vehicle group (beagle dogs; male dog, 30 mg/Kg, 24h): 1.3 fold
Free T4, fold change over vehicle group (beagle dogs; male dog, 30 mg/Kg, 24h): 1.0 fold
TSH, fold change over vehicle group (beagle dogs; male dog, 30 mg/Kg, 24h): 0.9 fold
Free T3, fold change over vehicle group (beagle dogs; male dog, 30 mg/Kg, Day 14): 1.3 fold
Free T4, fold change over vehicle group (beagle dogs; male dog, 30 mg/Kg, Day 14): 1.0 fold
TSH, fold change over vehicle group (beagle dogs; male dog, 30 mg/Kg, Day 14): 1.0 fold
Free T3, fold change over vehicle group (beagle dogs; [6]): 1.1 fold
Free T4, fold change over vehicle group (beagle dogs; [6]): 0.9 fold
TSH, fold change over vehicle group (beagle dogs; [6]): 0.8 fold
Free T3, fold change over vehicle group (beagle dogs; male dog, 100 mg/Kg, 24h): 1.1 fold
Free T4, fold change over vehicle group (beagle dogs; male dog, 100 mg/Kg, 24h): 0.8 fold
TSH, fold change over vehicle group (beagle dogs; male dog, 100 mg/Kg, 24h): 0.9 fold
Free T3, fold change over vehicle group (beagle dogs; male dog, 100 mg/Kg, Day 14): 1.1 fold
Free T4, fold change over vehicle group (beagle dogs; male dog, 100 mg/Kg, Day 14): 0.9 fold
TSH, fold change over vehicle group (beagle dogs; male dog, 100 mg/Kg, Day 14): 1.0 fold
Free T3, fold change over vehicle group (beagle dogs; [7]): 1.0 fold
Free T4, fold change over vehicle group (beagle dogs; [7]): 0.9 fold
TSH, fold change over vehicle group (beagle dogs; [7]): 0.7 fold
Free T3, fold change over vehicle group (beagle dogs; male dog, 1000 mg/Kg, 24h): 0.9 fold
Free T4, fold change over vehicle group (beagle dogs; male dog, 1000 mg/Kg, 24h): 0.9 fold
TSH, fold change over vehicle group (beagle dogs; male dog, 1000 mg/Kg, 24h): 0.9 fold
Free T3, fold change over vehicle group (beagle dogs; male dog, 1000 mg/Kg, Day 14): 1.0 fold
Free T4, fold change over vehicle group (beagle dogs; male dog, 1000 mg/Kg, Day 14): 1.0 fold
TSH, fold change over vehicle group (beagle dogs; male dog, 1000 mg/Kg, Day 14): 0.8 fold
selectivity / safety margin compared to FSHR, NK2(h) (NK2 receptor): over 400 fold
